Source: patent US12344600B2, “c-Myc mRNA translation modulators and uses thereof in the treatment of cancer” (Anima Biotech Inc., priority 2022, dated 2025)

system: c-Myc; experiment: c-Myc immunofluorescence assay; format: cell-based, human; conditions: A549 cells, 24 hours, anti-c-Myc immunofluorescence
Summary of the method: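 A549 NSCLC cells grown 48 h, then treated 24 h with increasing compound concentrations; fixed in 4% paraformaldehyde, stained with anti-c-Myc antibody plus fluorescent secondary and DAPI. Per-cell c-Myc fluorescence quantified by high-content imaging at 20×; dose-response fitted by logistic regression to give EC50.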

Structure (SMILES)	Myc Efficacy (−LogEC50)
COc1ccc(-c2noc(N3CCC(C(=O)NC4(c5nc(C)cs5)CCC4)CC3)n2)cc1 [Compound 298, 1-(3-(4-methoxyphenyl)-1,2,4-oxadiazol-5-yl)-N-(1-(4-methylthiazol-2-yl)cyclobutyl)piperidine-4-carboxamide]	+ (+ >3 and <5)
COc1ccc(-c2noc(N3CCC(C(=O)NC(CO)CC(F)(F)F)CC3)n2)cc1 (stereo not shown) [Compound 299, 1-(3-(4-methoxyphenyl)-1,2,4-oxadiazol-5-yl)-N-(4,4,4-trifluoro-1-hydroxybutan-2-yl)piperidine-4-carboxamide]	+ (+ >3 and <5)
COc1ccc(-c2noc(N3CCC(C(=O)NCc4cccc(OC(C)C)c4)CC3)n2)cc1 [Compound 300, N-(3-isopropoxybenzyl)-1-(3-(4-methoxyphenyl)-1,2,4-oxadiazol-5-yl)piperidine-4-carboxamide]	++ (++ ≥5 and <6)
COc1ccc(-c2noc(N3CCC(C(=O)NCC4CCCc5cccnc54)CC3)n2)cc1 (stereo not shown) [Compound 301, 1-(3-(4-methoxyphenyl)-1,2,4-oxadiazol-5-yl)-N-((5,6,7,8-tetrahydroquinolin-8-yl)methyl)piperidine-4-carboxamide]	+ (+ >3 and <5)
COc1ccc(-c2noc(N3CCC(C(=O)NC4CCN(C)c5ccccc54)CC3)n2)cc1 (stereo not shown) [Compound 302, 1-(3-(4-methoxyphenyl)-1,2,4-oxadiazol-5-yl)-N-(1-methyl-1,2,3,4-tetrahydroquinolin-4-yl)piperidine-4-carboxamide]	+ (+ >3 and <5)
COc1ccc(-c2noc(N3CCC(C(=O)NCC4OCCc5ccccc54)CC3)n2)cc1 (stereo not shown) [Compound 303, N-(isochroman-1-ylmethyl)-1-(3-(4-methoxyphenyl)-1,2,4-oxadiazol-5-yl)piperidine-4-carboxamide]	+ (+ >3 and <5)
COc1ccc(-c2noc(N3CCC(C(=O)NCC(c4ccccc4)N(C)C)CC3)n2)cc1 (stereo not shown) [Compound 304, N-(2-(dimethylamino)-2-phenylethyl)-1-(3-(4-methoxyphenyl)-1,2,4-oxadiazol-5-yl)piperidine-4-carboxamide]	+ (+ >3 and <5)
COc1ccc(-c2noc(N3CCC(C(=O)NCC(O)Cc4ccccc4)CC3)n2)cc1 (stereo not shown) [Compound 305, N-(2-hydroxy-3-phenylpropyl)-1-(3-(4-methoxyphenyl)-1,2,4-oxadiazol-5-yl)piperidine-4-carboxamide]	+ (+ >3 and <5)
COc1ccc(-c2noc(N3CCC(C(=O)Nc4ccc(C5COC5)cc4)CC3)n2)cc1 [Compound 306, 1-(3-(4-methoxyphenyl)-1,2,4-oxadiazol-5-yl)-N-(4-(oxetan-3-yl)phenyl)piperidine-4-carboxamide]	+ (+ >3 and <5)
COc1ccc(-c2noc(N3CCC(C(=O)NCC4(c5ccc(F)cc5F)CC4)CC3)n2)cc1 [Compound 307, N-((1-(2,4-difluorophenyl)cyclopropyl)methyl)-1-(3-(4-methoxyphenyl)-1,2,4-oxadiazol-5-yl)piperidine-4-carboxamide]	+ (+ >3 and <5)
COc1ccc(-c2noc(N3CCC(C(=O)NCc4ccc(OC)c(C(F)(F)F)c4)CC3)n2)cc1 [Compound 308, N-(4-methoxy-3-(trifluoromethyl)benzyl)-1-(3-(4-methoxyphenyl)-1,2,4-oxadiazol-5-yl)piperidine-4-carboxamide]	+ (+ >3 and <5)
COc1ccc(-c2noc(N3CCC(C(=O)NCCc4cccc(C(F)(F)F)n4)CC3)n2)cc1 [Compound 309, 1-(3-(4-methoxyphenyl)-1,2,4-oxadiazol-5-yl)-N-(2-(6-(trifluoromethyl)pyridin-2-yl)ethyl)piperidine-4-carboxamide]	− (− ≤3)
COc1ccc(-c2noc(N3CCC(C(=O)NC(C)Cc4c[nH]c5ccccc45)CC3)n2)cc1 (stereo not shown) [Compound 310, N-(1-(1H-indol-3-yl)propan-2-yl)-1-(3-(4-methoxyphenyl)-1,2,4-oxadiazol-5-yl)piperidine-4-carboxamide]	+ (+ >3 and <5)
